Here are results for 11 molecules from US12593845B2 (priority 2019, dated 2026).

Molecules are shown by their SMILES.

For experiment [1], the system named is Meloidogyne incognita. As to the kind of experiment: Efficacy against Meloidogyne incognita. Type of experiment: in vivo. The following applies: 96 h, second-instar larvae (L2), 40 μL of 125 ppm drug solution added to 160 μL suspension per well, 20° C., 4 days, read-out: nematode mortality rate. The method, then: (§1) 5 parts by weight of the dihydropyrimidine compound of the present invention, 93.5 parts by weight of N,N-dimethylformamide, and 1.5 parts by weight of polyoxyethylene sorbitan monolaurate (TWEEN® 20) were mixed and dissolved to obtain an emulsion (I) including 5% of an active ingredient.
A suspension containing about 50/0.16 mL second-instar larvae (L2) of Meloidogyne incognita was poured into a 96-well microplate at 160 μL per well. Then, a drug solution prepared by adding water to the emulsion (I) so as to have a concentration of the dihydropyrimidine compound of 125 ppm was poured at 40 μL per well. The plate was left to stand under a 20° C. condition for 4 days.
Mortality was determined, and the nematode mortality rate was calculated. […] The test repeated twice.

Experiment [2] has as its system wheat powdery mildew pathogen (Erysiphe graminis f. sp. tritici). As to the kind of experiment: Wheat powdery mildew control test. Type of experiment: in vivo. Conditions: Blumeria graminis, 144 h; 125 ppm drug solution sprayed onto wheat seedlings (Chihoku); lesion area ratio 6 days after inoculation. The essentials:
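Compound formulated as a 5% DMF/Tween 20 emulsion was diluted in water to 125 ppm and sprayed onto 1-2-leaf wheat seedlings (cv. Chihoku). Once dry, seedlings were inoculated with Erysiphe graminis f. sp. tritici conidia and kept in a greenhouse at 20 °C. Lesion area ratio was scored visually 6 days later, giving control value (%) relative to untreated inoculated plants.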

Experiment [3] has as its system wheat brown rust pathogen (Puccinia recondita). As to the kind of experiment: Wheat brown rust control test. The following applies: 288 h, 125 ppm drug solution sprayed onto wheat seedlings (Norin 61), lesion area ratio 12 days after inoculation. Type of experiment: in vivo. As for the experimental part: as §1
(§2) The control value was calculated by the following expression. Control value (%)=100−{lesion area ratio in treated group/lesion area ratio in untreated group}×100 [Expression 1]
Water was added to the emulsion (I) such that the concentration of the dihydropyrimidine compound reached 125 ppm to dissolve the emulsion, and a drug solution was obtained. Subsequently, the drug solution was sprayed onto wheat seedlings (variety: “Norin 61”, leaf stage: 1 to 2) cultivated in seedling pots. After air drying, uredospores of a wheat brown rust pathogen (Puccinia recondita) were sprinkled on wheat seedlings sprayed with the drug solution for inoculation (treated group). As a control, wheat seedlings that were not sprayed with the drug solution were inoculated in the same manner as described above (untreated group). The seedlings were left to stand in a greenhouse at 20° C.
On the 12 days after the inoculation, the leaves of the wheat seedlings were visually observed to determine the lesion area ratio, and the control value was calculated.

Experiment [4] concerns apple scab pathogen (Venturia inaequalis). As to the kind of experiment: Apple scab control test. The experiment is classed as in vivo. Conditions: 336 h, 125 ppm drug solution sprayed onto apple seedlings (Orin), lesion area ratio 2 weeks after inoculation. The essentials: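 Compound emulsion diluted in water to 125 ppm and sprayed on 3-4 leaf 'Orin' apple seedlings, which were inoculated with V. inaequalis conidiospores after drying and held humidified at 20° C, 12 h light/dark. Lesion area ratio scored 2 weeks post-inoculation; control value computed relative to unsprayed inoculated plants.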

Experiment [5] relates to wheat powdery mildew pathogen (Erysiphe graminis f. sp. tritici). As to the kind of experiment: Wheat powdery mildew seed treatment test. The experiment is classed as in vivo. The following applies: Blumeria graminis, 168 h; seed treatment 100 g/100 kg wheat seeds (Chihoku); inoculation after 8 to 10 days; lesion area ratio 7 days after inoculation. As for the experimental part: as §1, §2
The emulsion (I) was used to treat seeds such that (weight of dihydropyrimidine compound)/(weight of seeds) reached 100 g/100 kg based on the wheat seeds (variety: “Chihoku”). These seeds were disseminated in pots, and after 8 to 10 days, conidiospores of a wheat powdery mildew pathogen (Erysiphe graminis f. sp. tritici) were sprinkled thereon for inoculation (treated group). As a control, wheat seedlings that were not treated with the drug were inoculated in the same manner as described above (untreated group). The seedlings were left to stand in a greenhouse at 20° C.
(§3) On the 7 days after the inoculation, the leaves of the wheat seedlings were visually observed to determine the lesion area ratio, and the control value was calculated.

Experiment [6] has the same test system. As to the kind of experiment: Wheat powdery mildew soil irrigation treatment test. The experiment is classed as in vivo. The following applies: Blumeria graminis, 168 h; soil irrigation with 10 ml of 100 ppm drug solution per pot, wheat (Chihoku); inoculation after 8 to 10 days; lesion area ratio 7 days after inoculation. The method, then: as §1, §2
Pots (5.5 cm×5.5 cm) in which wheat seeds (variety: “Chihoku”) were disseminated were irrigated with 10 ml of a drug solution prepared by adding water to the emulsion (I) so as to have a concentration of the dihydropyrimidine compound of 100 ppm. After 8 to 10 days, conidiospores of a wheat powdery mildew pathogen (Erysiphe graminis f. sp. tritici) were sprinkled thereon for inoculation (treated group). As a control, wheat seedlings that were not treated with the drug were inoculated in the same manner as described above (untreated group). The seedlings were left to stand in a greenhouse at 20° C.
as §3

Experiment [7] deals with Aspergillus niger. As to the kind of experiment: Antimicrobial test against Aspergillus niger. Type of experiment: cell-based. The following applies: 96 h, Vogel medium, 25° C., 4 days in the dark, turbidity at 405 nm, read-out: growth inhibition rate. The method in brief: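 A. niger spores dispersed in Vogel medium with compound (DMSO solution) at 25 ppm, cultured in the dark at 25° C. for 4 days. Turbidity at 405 nm compared with untreated culture to give growth inhibition (%).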

In experiment [8] the test system is cucumber gray mold pathogen (Botrytis cinerea). As to the kind of experiment: Cucumber gray mold control test. The experiment is classed as in vivo. Conditions: 125 ppm drug solution sprayed onto cucumber seedlings (cotyledon stage); lesion area ratio 4 days after inoculation. As for the experimental part:
as §1, §2
Water was added to the emulsion (I) such that the concentration of the dihydropyrimidine compound reached 125 ppm to dissolve the emulsion, and a drug solution was obtained. Subsequently, the drug solution was sprayed onto cucumber seedlings (variety: “creeping” type, cotyledon stage) cultivated in seedling pots. After air drying, a suspension of conidiospores of a cucumber gray mold pathogen (Botrytis cinerea) was dropped thereon for inoculation (treated group). As a control, cucumber seedlings that were not sprayed with the drug solution were inoculated by dropping in the same manner as described above (untreated group). The seedlings were left to stand in a humidified room at 20° C.
On the 4 days after the inoculation, the leaves of the cucumber seedlings were visually observed to determine the lesion area ratio, and the control value was calculated.

As to `CON=C(C)c1cn(CC(O)c2cc(F)ccc2OC)c(=O)n(C(C)C(=O)NC(C)C)c1=O` (stereo not shown) [A-28], the mortality at 125 ppm in experiment [1] was no less than 60%.
As to `COc1ccc(F)cc1C(Cn1cc(C=NOC(C)C)c(=O)n(C[C@H](C)NC(=O)C(C)C)c1=O)OCCC#N` (stereo partly shown) [A-60], the pest or weed control at 125 ppm in experiment [2], in experiment [3] and in experiment [4] was no less than 75% each time. Moreover, the pest or weed control at 100 g/100 kg seed in experiment [5] is no less than 75%. Further, the pest or weed control at 100 ppm in experiment [6] was no less than 75%. In addition, the inhibition at 25 ppm in experiment [7] is no less than 50%.
For the molecule `COc1ccc(F)cc1C(Cn1cc(/C(C)=N/OC(C)C)c(=O)n(C[C@H](C)NC(=O)C(C)C)c1=O)OC` (stereo partly shown) [A-61], the pest or weed control at 125 ppm in experiment [2], in experiment [3] and in experiment [4] was no less than 75% in each case. For the same molecule, the pest or weed control at 100 g/100 kg seed in experiment [5] was no less than 75%. The inhibition at 25 ppm in experiment [7] is no less than 50%.
As to `C=C1CCN(C(=O)C(C)n2c(=O)c(C=NOC(C)C)cn(CC(OCCC#N)c3cc(F)ccc3OC)c2=O)CC1` (stereo not shown) [A-64], in experiment [3], the pest or weed control at 125 ppm was no less than 75%. For the same molecule, the mortality at 125 ppm in experiment [1] is no less than 60%.
Regarding `COc1ccc(F)cc1C(O)Cn1cc(/C(C)=N/OC(C)C)c(=O)n(C[C@H](C)NC(=O)C(C)C)c1=O` (stereo partly drawn) [A-75, N-((2S)-1-(3-(2-(5-fluoro-2-methoxyphenyl)-2-hydroxyethyl)-5-((E)-1-(isopropoxyimino)ethyl)-2,6-dioxo-3,6-dihydropyrimidin-1(2H)-yl)propan-2-yl)isobutyramide], the pest or weed control at 125 ppm in experiment [2] and in experiment [4] was no less than 75% throughout. The pest or weed control at 100 g/100 kg seed in experiment [5] was no less than 75%. In addition, the pest or weed control at 100 ppm in experiment [6] is no less than 75%. Moreover, the Control value in experiment [8] was no less than 75%. The inhibition at 25 ppm in experiment [7] is no less than 50%.
As to `COc1ccc(F)cc1C(O)Cn1cc(C=NOC(C)C)c(=O)n(C[C@H](C)NC(=O)C(C)C)c1=O` (stereo partly shown) [A-76], the pest or weed control at 125 ppm in experiment [2], in experiment [3] and in experiment [4] was no less than 75% in each case. Moreover, the pest or weed control at 100 g/100 kg seed in experiment [5] was no less than 75%. In addition, the pest or weed control at 100 ppm in experiment [6] is no less than 75%. Besides, the inhibition at 25 ppm in experiment [7] was no less than 50%.
Regarding `COc1ccc(F)cc1C(O)Cn1cc(C=NOC(C)C)c(=O)n(C(C)C(=O)NC(C)C)c1=O` (stereo not shown) [A-93], the pest or weed control at 125 ppm in experiment [2], in experiment [3] and in experiment [4] was no less than 75% throughout. Moreover, the inhibition at 25 ppm in experiment [7] is no less than 50%.
As to `C=CCOC(Cn1cc(/C(C)=N/OCC)c(=O)n(CCNC(=O)C(C)C)c1=O)c1cc(F)ccc1OC` (stereo not shown) [A-95], the pest or weed control at 125 ppm in experiment [2], in experiment [3] and in experiment [4] was no less than 75% each time. Besides, the inhibition at 25 ppm in experiment [7] is no less than 50%.
On to `COc1ccc(F)cc1C(Cn1cc(/C(C)=N/OC(C)C)c(=O)n(CCNC(=O)C(C)C)c1=O)OC` (stereo not shown) [A-100], for which the pest or weed control at 125 ppm in experiment [2], in experiment [3] and in experiment [4] was no less than 75% throughout. Further, the inhibition at 25 ppm in experiment [7] is no less than 50%.
For `CC[C@@H](Cn1c(=O)c(/C(C)=N/OC(C)C)cn(CC(O)c2ccccc2OC)c1=O)NC(=O)C(C)C` (stereo partly shown) [C-92], in experiment [1], the mortality at 125 ppm was no less than 60%.
On the same count and under the same terms, then `COc1ccc(Br)cc1C(O)Cn1cc(/C(C)=N/OC(C)C)c(=O)n(C[C@H](C)NC(=O)C(C)C)c1=O` (stereo partly shown) [C-145], with no less than 60%.
